From ChEMBL document CHEMBL4706552, “Discovery of 4-methyl-N-(4-((4-methylpiperazin- 1-yl)methyl)-3-(trifluoromethyl)phenyl)-3-((6-(pyridin-3-yl)-1H-pyrazolo[3,4-d]pyrimidin-4-yl)-oxy)benzamide as a potent inhibitor of RET and its gatekeeper mutant” (Eur J Med Chem, 2020)

Tests used:
Type in all cases: cell-based
[1] = target: T1, Kinesin-1 heavy chain/ Tyrosine-protein kinase receptor RET (Homo sapiens) (UniProt P07949+P33176); assay: Inhibition of KIF5B-RET fusion protein (unknown origin) expressed in mouse BaF3 cells assessed as reduction in cell proliferation measured after 48 hrs by MTS assay
[2] = target: T2, Coiled-coil domain-containing protein 6/Tyrosine-protein kinase receptor RET (Homo sapiens) (UniProt P07949+Q16204); assay: Inhibition of CCDC6-RET fusion protein (unknown origin) expressed in mouse BaF3 cells assessed as reduction in cell proliferation measured after 48 hrs by MTS assay
[3] = target: T1, Kinesin-1 heavy chain/ Tyrosine-protein kinase receptor RET (Homo sapiens); assay: Inhibition of KIF5B-RET fusion protein (unknown origin) expressed in mouse BaF3 cells assessed as cell survival at 2 uM measured after 48 hrs by MTS assay relative to control
[4] = target: T2, Coiled-coil domain-containing protein 6/Tyrosine-protein kinase receptor RET (Homo sapiens); assay: Inhibition of CCDC6-RET fusion protein (unknown origin) expressed in mouse BaF3 cells assessed as cell survival at 2 uM measured after 48 hrs by MTS assay relative to control
[5] = test system: BaF3; assay: Inhibition of CCDC6-RET V804M mutant fusion protein (unknown origin) expressed in mouse BaF3 cells assessed as reduction in cell proliferation measured after 48 hrs by MTS assay; settings: Homo sapiens
[6] = Cytotoxicity against mouse BaF3 cells assessed as reduction in cell proliferation measured after 48 hrs by MTS assay
[7] = test system: Kinesin-1 heavy chain/ Tyrosine-protein kinase receptor RET (Homo sapiens), P07949+P33176 [V804M]; assay: Inhibition of KIF5B-RET V804M mutant fusion protein (unknown origin) expressed in mouse BaF3 cells assessed as reduction in cell proliferation measured after 48 hrs by MTS assay

T2 sequence (P07949 29-1114 limits assumed): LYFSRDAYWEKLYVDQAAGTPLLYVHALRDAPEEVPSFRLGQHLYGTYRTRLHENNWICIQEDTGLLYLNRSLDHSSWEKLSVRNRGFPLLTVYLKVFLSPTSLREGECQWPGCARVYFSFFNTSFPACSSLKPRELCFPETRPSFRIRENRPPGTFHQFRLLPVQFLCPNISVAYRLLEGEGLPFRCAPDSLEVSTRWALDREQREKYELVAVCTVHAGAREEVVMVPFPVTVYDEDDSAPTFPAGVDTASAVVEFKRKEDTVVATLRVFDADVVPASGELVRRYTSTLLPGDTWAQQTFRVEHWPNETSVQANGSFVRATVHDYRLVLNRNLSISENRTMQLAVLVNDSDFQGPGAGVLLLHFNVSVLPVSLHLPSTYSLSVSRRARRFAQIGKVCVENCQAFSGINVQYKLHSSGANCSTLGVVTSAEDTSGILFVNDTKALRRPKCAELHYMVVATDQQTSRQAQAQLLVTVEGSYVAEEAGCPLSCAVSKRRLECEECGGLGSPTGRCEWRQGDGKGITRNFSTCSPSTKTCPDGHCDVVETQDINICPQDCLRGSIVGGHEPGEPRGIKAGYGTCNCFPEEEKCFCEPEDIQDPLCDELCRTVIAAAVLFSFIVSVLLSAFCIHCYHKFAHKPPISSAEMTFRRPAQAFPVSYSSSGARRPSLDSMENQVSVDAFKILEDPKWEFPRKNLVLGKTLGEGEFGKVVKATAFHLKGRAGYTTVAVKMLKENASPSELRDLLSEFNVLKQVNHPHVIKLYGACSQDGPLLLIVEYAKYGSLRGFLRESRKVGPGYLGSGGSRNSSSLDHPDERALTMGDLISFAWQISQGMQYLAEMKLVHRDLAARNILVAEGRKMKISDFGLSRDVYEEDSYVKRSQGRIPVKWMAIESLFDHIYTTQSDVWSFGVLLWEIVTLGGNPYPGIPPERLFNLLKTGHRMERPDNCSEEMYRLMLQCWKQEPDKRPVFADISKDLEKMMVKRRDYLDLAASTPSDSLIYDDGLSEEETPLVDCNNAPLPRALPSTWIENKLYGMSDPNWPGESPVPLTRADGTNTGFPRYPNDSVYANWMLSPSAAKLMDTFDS
T2 sequence (Q16204 2-474 partner limits assumed): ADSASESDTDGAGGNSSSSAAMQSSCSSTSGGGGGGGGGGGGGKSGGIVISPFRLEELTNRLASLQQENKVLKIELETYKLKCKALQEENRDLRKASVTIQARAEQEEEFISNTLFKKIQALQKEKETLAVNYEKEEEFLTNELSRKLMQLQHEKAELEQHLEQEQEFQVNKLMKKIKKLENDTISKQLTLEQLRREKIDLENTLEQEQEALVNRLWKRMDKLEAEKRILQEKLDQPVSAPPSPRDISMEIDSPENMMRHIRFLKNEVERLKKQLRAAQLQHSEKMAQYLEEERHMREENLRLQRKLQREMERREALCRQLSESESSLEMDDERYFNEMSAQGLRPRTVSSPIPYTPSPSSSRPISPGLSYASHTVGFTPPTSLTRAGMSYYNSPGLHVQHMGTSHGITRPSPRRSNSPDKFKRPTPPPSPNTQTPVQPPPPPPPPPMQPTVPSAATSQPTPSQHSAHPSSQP
T1 sequence (P07949 29-1114 limits assumed): as the sequence (P07949 29-1114 limits assumed) above
T1 sequence (P33176 2-963 partner limits assumed): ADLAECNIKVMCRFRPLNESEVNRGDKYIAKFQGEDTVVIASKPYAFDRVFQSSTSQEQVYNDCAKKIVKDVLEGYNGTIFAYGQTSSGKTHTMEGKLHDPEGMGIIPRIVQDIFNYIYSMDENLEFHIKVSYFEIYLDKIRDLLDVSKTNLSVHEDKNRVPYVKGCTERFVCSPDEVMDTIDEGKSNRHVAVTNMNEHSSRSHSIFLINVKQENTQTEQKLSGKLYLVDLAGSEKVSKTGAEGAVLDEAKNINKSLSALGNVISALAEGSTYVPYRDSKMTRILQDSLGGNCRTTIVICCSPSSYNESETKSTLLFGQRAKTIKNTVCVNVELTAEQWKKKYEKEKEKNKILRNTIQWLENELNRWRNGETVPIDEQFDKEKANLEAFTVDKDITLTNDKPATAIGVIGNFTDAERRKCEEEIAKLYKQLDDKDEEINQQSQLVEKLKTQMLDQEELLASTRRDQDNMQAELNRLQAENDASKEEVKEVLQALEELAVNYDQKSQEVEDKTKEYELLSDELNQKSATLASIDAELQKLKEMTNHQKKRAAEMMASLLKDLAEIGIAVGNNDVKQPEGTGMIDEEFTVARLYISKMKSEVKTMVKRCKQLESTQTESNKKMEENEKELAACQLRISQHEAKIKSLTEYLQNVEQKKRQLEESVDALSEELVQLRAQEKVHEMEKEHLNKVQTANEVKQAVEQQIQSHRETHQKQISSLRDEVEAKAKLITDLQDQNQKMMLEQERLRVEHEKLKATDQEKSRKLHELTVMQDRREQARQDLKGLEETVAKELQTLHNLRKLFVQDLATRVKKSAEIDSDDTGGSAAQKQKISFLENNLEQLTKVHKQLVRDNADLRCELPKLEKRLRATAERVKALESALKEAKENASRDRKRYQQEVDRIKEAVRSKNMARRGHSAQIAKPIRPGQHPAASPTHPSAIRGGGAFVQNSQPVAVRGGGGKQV

SMILES	GI50 [1] [nM]	GI50 [2] [nM]	GI50 [5] [nM]	GI50 [7] [nM]	Survival [3] [%]	Survival [4] [%]	GI50 at 48 h [6] [nM]
Cc1ccc(C(=O)Nc2cccc(C(F)(F)F)c2)cc1Oc1nc(-c2cccnc2)nc2c1cnn2C	2240	1970					
CN1CCN(Cc2ccc(NC(=O)c3cccc(Oc4nc(-c5cccnc5)nc5c4cnn5C)c3)cc2C(F)(F)F)CC1					56.5	65.5	
CN1CCN(Cc2ccc(C(=O)Nc3cc(Oc4nc(-c5ccncc5)nc5c4cnn5C)ccc3Cl)cc2C(F)(F)F)CC1	114	16	> 10000	8190			3400
CN1CCN(Cc2ccc(NC(=O)c3cccc(Oc4nc(-c5ccncc5)nc5c4cnn5C)c3)cc2C(F)(F)F)CC1					74.9	94.1	
CN1CCN(Cc2ccc(NC(=O)c3cc(Oc4nc(-c5ccncc5)nc5c4cnn5C)ccc3Cl)cc2C(F)(F)F)CC1	130	108					
Cc1ccc(Oc2nc(-c3cccnc3)nc3c2cnn3C)cc1C(=O)Nc1ccc(CN2CCN(C)CC2)c(C(F)(F)F)c1					87.5	100	
Cc1ccc(C(=O)Nc2ccc(CN3CCN(C)CC3)c(C(F)(F)F)c2)cc1Oc1nc(-c2ccccc2)nc2c1cnn2C	98	348					
Cc1ccc(C(=O)Nc2ccc(CN3CCN(C)CC3)c(C(F)(F)F)c2)cc1Oc1nc(-c2cccc(Cl)c2)nc2c1cnn2C	320	807					
Cc1ccc(C(=O)Nc2cc(CN3CCN(C)CC3)cc(C(F)(F)F)c2)cc1Oc1nc(-c2cccnc2)nc2c1cnn2C	482	264					
CN1CCN(Cc2ccc(NC(=O)c3cc(Oc4nc(-c5cccnc5)nc5c4cnn5C)ccc3Cl)cc2C(F)(F)F)CC1	4020	4170					
Cc1ccc(NC(=O)c2ccc(CN3CCN(C)CC3)c(C(F)(F)F)c2)cc1Oc1nc(-c2cccnc2)nc2c1cnn2C	411	477					
CN1CCN(Cc2ccc(C(=O)Nc3cc(Oc4nc(-c5cccnc5)nc5[nH]ncc45)ccc3Cl)cc2C(F)(F)F)CC1	1350	567					
CO[C@]1(C(=O)N[C@@H](C)c2ccc(-n3cc(F)cn3)nc2)CC[C@H](c2nc(C)cc(Nc3cc(C)[nH]n3)n2)CC1 [PRALSETINIB]	< 4	< 4	< 4	< 4			1270
Cc1ccc(C(=O)Nc2ccc(CN3CCN(C)CC3)c(C(F)(F)F)c2)cc1Oc1nc(-c2ccoc2)nc2c1cnn2C	14	75	529	290			> 10000
Cc1ccc(C(=O)Nc2ccc(CN3CCN(C)CC3)c(C(F)(F)F)c2)cc1Oc1nc(-c2ccncc2)nc2c1cnn2C	36	39	220	90			2620
Cc1ccc(-c2nc(Oc3cc(C(=O)Nc4ccc(CN5CCN(C)CC5)c(C(F)(F)F)c4)ccc3C)c3cnn(C)c3n2)cc1	152	847					
CCn1ncc2c(Oc3cc(C(=O)Nc4ccc(CN5CCN(C)CC5)c(C(F)(F)F)c4)ccc3C)nc(-c3ccncc3)nc21	> 10000	> 10000					
CN1CCN(Cc2ccc(C(=O)Nc3cccc(Oc4nc(-c5cccnc5)nc5c4cnn5C)c3)cc2C(F)(F)F)CC1	953	1110					
CN1CCN(Cc2ccc(C(=O)Nc3cccc(Oc4nc(-c5ccncc5)nc5c4cnn5C)c3)cc2C(F)(F)F)CC1	106	140					
Cc1ccc(C(=O)Nc2ccc(CN3CCN(C)CC3)c(C(F)(F)F)c2)cc1Oc1nc(-c2ccncc2)nc2c1cnn2C(C)C	915	1100					
Cc1ccc(C(=O)Nc2ccc(CN3CCN(C)CC3)c(C(F)(F)F)c2)cc1Oc1nc(-c2ccncc2)nc2[nH]ncc12	240	73					

The next lines start with results.

GI50 [1] [nM]	GI50 [2] [nM]	GI50 [5] [nM]	GI50 [7] [nM]	SMILES	Survival [3] [%]	Survival [4] [%]	GI50 at 48 h [6] [nM]
2620	1570			Cc1cn(-c2cc(NC(=O)c3ccc(C)c(Oc4nc(-c5ccncc5)nc5c4cnn5C)c3)cc(C(F)(F)F)c2)cn1			
820	342			CN1CCN(Cc2ccc(C(=O)Nc3cccc(Oc4nc(-c5cccnc5)nc5[nH]ncc45)c3)cc2C(F)(F)F)CC1			
4	4	1890	757	Cc1ccc(Oc2nc(-c3ccncc3)nc3[nH]ncc23)cc1NC(=O)c1ccc(CN2CCN(C)CC2)c(C(F)(F)F)c1			3450
299	79			CN1CCN(Cc2ccc(C(=O)Nc3cccc(Oc4nc(-c5ccncc5)nc5[nH]ncc45)c3)cc2C(F)(F)F)CC1			
1390	2070			CN1CCN(Cc2ccc(C(=O)Nc3cc(Oc4nc(-c5cccnc5)nc5c4cnn5C)ccc3Cl)cc2C(F)(F)F)CC1			
3890	2370			Cc1ccc(Oc2nc(-c3cccnc3)nc3[nH]ncc23)cc1NC(=O)c1ccc(CN2CCN(C)CC2)c(C(F)(F)F)c1			
> 10000	> 10000			Cc1cn(-c2cc(NC(=O)c3ccc(C)c(Oc4nc(-c5cccnc5)nc5c4cnn5C)c3)cc(C(F)(F)F)c2)cn1			
4420	4170			Cc1ccc(Oc2nc(-c3cccnc3)nc3c2cnn3C)cc1NC(=O)c1ccc(CN2CCN(C)CC2)c(C(F)(F)F)c1			
70	123			Cc1ccc(C(=O)Nc2ccc(CN3CCN(C)CC3)c(C(F)(F)F)c2)cc1Oc1nc(Nc2ccccc2)nc2c1cnn2C			
440	1520			Cc1ccc(Oc2nc(-c3ccncc3)nc3c2cnn3C)cc1C(=O)Nc1ccc(CN2CCN(C)CC2)c(C(F)(F)F)c1			
22	13	7380	6520	CN1CCN(Cc2ccc(C(=O)Nc3cc(Oc4nc(-c5ccncc5)nc5[nH]ncc45)ccc3Cl)cc2C(F)(F)F)CC1			1010
469	617			Cc1ccc(NC(=O)c2ccc(CN3CCN(C)CC3)c(C(F)(F)F)c2)cc1Oc1nc(-c2ccncc2)nc2c1cnn2C			
	29	1000	1210	COc1cc2nccc(Oc3ccc(NC(=O)C4(C(=O)Nc5ccc(F)cc5)CC4)cc3)c2cc1OC [CABOZANTINIB]			7910
35	39	136	113	Cc1ccc(C(=O)Nc2ccc(CN3CCN(C)CC3)c(C(F)(F)F)c2)cc1Oc1nc(-c2cccnc2)nc2c1cnn2C			1290
114	696			Cc1ccc(C(=O)Nc2ccc(CN3CCN(C)CC3)c(C(F)(F)F)c2)cc1Oc1nc(-c2ccc(Cl)cc2)nc2c1cnn2C			
28	178	499	274	Cc1ccc(C(=O)Nc2ccc(CN3CCN(C)CC3)c(C(F)(F)F)c2)cc1Oc1nc(-c2cccc(O)c2)nc2c1cnn2C			2640
36	449	736	564	Cc1ccc(C(=O)Nc2ccc(CN3CCN(C)CC3)c(C(F)(F)F)c2)cc1Oc1nc(-c2ccsc2)nc2c1cnn2C			5070
6	13	4870	4210	Cc1ccc(Oc2nc(-c3ccncc3)nc3c2cnn3C)cc1NC(=O)c1ccc(CN2CCN(C)CC2)c(C(F)(F)F)c1			2780
57	166			Cc1ccc(C(=O)Nc2ccc(CN3CCN(C)CC3)c(C(F)(F)F)c2)cc1Oc1nc(-c2ccc(O)cc2)nc2c1cnn2C			
